Converted amounts (≈) assume the structure as drawn.
Columns and labels:
Experiment in all cases: ≥ marks a high value that may be exact or a test limit, other limits are often not marked, values filed in µg/mL are converted to µM
[1] = test system: Escherichia coli ATCC 25922
[2] = test system: Klebsiella pneumoniae ATCC 700603
[3] = test system: Pseudomonas aeruginosa ATCC 27853
[4] = test system: Staphylococcus aureus ATCC 29213
[5] = test system: Staphylococcus aureus ATCC 33591
[6] = test system: Staphylococcus aureus ATCC 700699
Candida albicans = test system: Candida albicans
[7] = test system: Enterococcus faecalis ATCC 29212
Escherichia coli UB1005 = test system: Escherichia coli UB1005
[8] = test system: Pseudomonas aeruginosa H103
[9] = test system: Salmonella enterica serovar Typhimurium
[10] = test system: Staphylococcus aureus ATCC 25923
[11] = test system: Staphylococcus epidermidis
Bacillus subtilis 168 = test system: Bacillus subtilis 168
[12] = test system: Candida albicans F7-39/IDE99
Escherichia coli B = test system: Escherichia coli B
[13] = test system: Micrococcus luteus CCM 144
Pseudomonas aeruginosa = test system: Pseudomonas aeruginosa
Staphylococcus aureus 1 = test system: Staphylococcus aureus 1
[14] = test system: Staphylococcus aureus ATCC 43300
Staphylococcus aureus = test system: Staphylococcus aureus
Acinetobacter baumannii = test system: Acinetobacter baumannii
Escherichia coli = test system: Escherichia coli
[15] = test system: Pseudomonas aeruginosa PAO1

SMILES | MIC [1] | MIC [2] | MIC [3] | MIC [4] | MIC [5] | MIC [6] | MIC [9] | MIC [10] | MIC [11] | MIC (Pseudomonas aeruginosa) | MIC (Staphylococcus aureus) | other results
CC[C@H](C)[C@H](NC(=O)[C@H](CC(=O)O)NC(=O)[C@@H](NC(=O)[C@@H](NC(=O)CN)C(C)C)C(C)C)C(=O)N[C@@H](CC(C)C)C(=O)N[C@@H](CCCCN)C(=O)NCC(=O)N[C@@H](C)C(=O)N[C@@H](C)C(=O)N[C@@H](CCCCN)C(=O)N[C@@H](CC(=O)O)C(=O)N[C@@H](C)C(=O)N[C@@H](C)C(=O)NCC(=O)N[C@@H](Cc1cnc[nH]1)C(=O)N[C@@H](CC(C)C)C(=O)N[C@@H](C)C(=O)N[C@@H](CO)C(=O)N[C@@H](CCCCN)C(=O)N[C@H](C(=O)N[C@@H](CCSC)C(=O)N[C@@H](CC(N)=O)C(=O)N[C@@H](CCCCN)C(=O)N[C@@H](CC(C)C)C(N)=O)C(C)C [GVVDILKGAAKDAAGHLASKVMNKL] | > 100 µM | > 100 µM | > 100 µM | > 100 µM | ≥ 100 µM | ≥ 100 µM |  |  |  |  |  | 
CC[C@H](C)[C@H](NC(=O)[C@@H](NC(=O)[C@@H](NC(=O)[C@H](CCCN=C(N)N)NC(=O)[C@@H](NC(=O)[C@H](CCCN=C(N)N)NC(=O)[C@H](Cc1c[nH]c2ccccc12)NC(=O)[C@H](CCCCN)NC(=O)[C@@H](N)Cc1c[nH]c2ccccc12)C(C)C)C(C)C)[C@@H](C)O)C(=O)O [WKWRVRVTI] |  |  |  |  |  |  | 2.7 µM (≈ 3.36 µg/mL) | 2.7 µM (≈ 3.36 µg/mL) | 1.3 µM (≈ 1.62 µg/mL) |  |  | MIC (Candida albicans): 10.8 µM (≈ 13.4 µg/mL); MIC [7]: 2.7 µM (≈ 3.36 µg/mL); MIC (Escherichia coli UB1005): 1.3 µM (≈ 1.62 µg/mL); MIC [8]: 5.4 µM (≈ 6.72 µg/mL)
CC[C@H](C)[C@H](NC(=O)[C@H](CC(=O)O)NC(=O)[C@H](C)NC(=O)[C@H](C)NC(=O)[C@H](C)NC(=O)CNC(=O)[C@H](CCCCN)NC(=O)[C@H](CC(C)C)NC(=O)[C@@H](NC(=O)[C@H](CC(=O)O)NC(=O)[C@@H](NC(=O)[C@@H](NC(=O)CN)C(C)C)C(C)C)[C@@H](C)CC)C(=O)N[C@@H](C)C(=O)NCC(=O)N[C@@H](Cc1cnc[nH]1)C(=O)N[C@@H](CC(C)C)C(=O)N[C@@H](C)C(=O)N[C@@H](CO)C(=O)N[C@@H](CCCCN)C(=O)N[C@H](C(=O)N[C@@H](CCSC)C(=O)N[C@@H](CC(N)=O)C(=O)N[C@@H](CCCCN)C(=O)N[C@@H](CC(C)C)C(N)=O)C(C)C [GVVDILKGAAADIAGHLASKVMNKL] | 100 µM (≈ 249 µg/mL) | > 100 µM | > 100 µM | > 100 µM | ≥ 100 µM | ≥ 100 µM |  |  |  |  |  | 
CC[C@H](C)[C@H](NC(=O)CN)C(=O)N[C@@H](CCSC)C(=O)N[C@@H](CO)C(=O)N[C@@H](CO)C(=O)N[C@@H](CC(C)C)C(=O)N[C@@H](CCSC)C(=O)N[C@@H](CCCCN)C(=O)N[C@@H](CCCCN)C(=O)N[C@@H](CC(C)C)C(=O)N[C@@H](C)C(=O)N[C@@H](CCCCN)C(=O)N[C@H](C(=O)N[C@H](C(=O)N[C@@H](CCCCN)C(=O)N[C@@H](CCCCN)C(N)=O)[C@@H](C)CC)[C@@H](C)CC [GIMSSLMKKLAKIIKK] |  |  | 5.2 µM (≈ 9.3 µg/mL) |  |  |  |  |  | 2.9 µM (≈ 5.19 µg/mL) | 10 µM (≈ 17.9 µg/mL) | 17 µM (≈ 30.4 µg/mL) | MIC (Bacillus subtilis 168): 7 µM (≈ 12.5 µg/mL); MIC [12]: 7.6 µM (≈ 13.6 µg/mL); MIC (Escherichia coli B): 15 µM (≈ 26.8 µg/mL); MIC [13]: 3 µM (≈ 5.37 µg/mL); MIC (Staphylococcus aureus 1): 8.6 µM (≈ 15.4 µg/mL); MIC [14]: 33 µM (≈ 59 µg/mL)
NCCCC[C@H](NC(=O)[C@H](Cc1c[nH]c2ccccc12)NC(=O)[C@H](Cc1c[nH]c2ccccc12)NC(=O)[C@H](CCCN=C(N)N)NC(=O)[C@@H](N)CCCN=C(N)N)C(=O)N[C@@H](Cc1c[nH]c2ccccc12)C(=O)N[C@@H](Cc1c[nH]c2ccccc12)C(=O)N[C@@H](Cc1c[nH]c2ccccc12)C(=O)N[C@@H](CCCN=C(N)N)C(=O)O [RRWWKWWWR] |  |  |  |  |  |  | 2.7 µM (≈ 4.17 µg/mL) | 0.7 µM (≈ 1.08 µg/mL) | 0.7 µM (≈ 1.08 µg/mL) |  |  | MIC (Candida albicans): 5.4 µM (≈ 8.35 µg/mL); MIC [7]: 5.4 µM (≈ 8.35 µg/mL); MIC (Escherichia coli UB1005): 2.7 µM (≈ 4.17 µg/mL); MIC [8]: 5.4 µM (≈ 8.35 µg/mL)
CC[C@H](C)[C@H](NC(=O)CN)C(=O)N[C@@H](CCSC)C(=O)N[C@@H](CO)C(=O)N[C@@H](CO)C(=O)N[C@@H](CC(C)C)C(=O)N[C@@H](CCSC)C(=O)N[C@@H](CCCCN)C(=O)N[C@@H](CCCCN)C(=O)N[C@@H](CC(C)C)C(=O)N[C@@H](C)C(=O)N[C@@H](C)C(=O)N[C@@H](Cc1cnc[nH]1)C(=O)N[C@H](C(=O)N[C@@H](C)C(=O)N[C@@H](CCCCN)C(N)=O)[C@@H](C)CC [GIMSSLMKKLAAHIAK] |  |  | 20 µM (≈ 34 µg/mL) |  |  |  |  |  | 13 µM (≈ 22.1 µg/mL) | 68 µM (≈ 115 µg/mL) | 64 µM (≈ 109 µg/mL) | MIC (Bacillus subtilis 168): 7 µM (≈ 11.9 µg/mL); MIC [12]: 18 µM (≈ 30.6 µg/mL); MIC (Escherichia coli B): 15 µM (≈ 25.5 µg/mL); MIC [13]: 3 µM (≈ 5.09 µg/mL); MIC (Staphylococcus aureus 1): ≥ 53 µM; MIC [14]: 63 µM (≈ 107 µg/mL)
CC[C@H](C)[C@H](NC(=O)[C@H](CC(=O)O)NC(=O)[C@H](CCCCN)NC(=O)[C@H](C)NC(=O)[C@H](C)NC(=O)CNC(=O)[C@H](CCCCN)NC(=O)[C@H](CC(C)C)NC(=O)[C@@H](NC(=O)[C@H](CC(=O)O)NC(=O)[C@@H](NC(=O)[C@@H](NC(=O)CN)C(C)C)C(C)C)[C@@H](C)CC)C(=O)N[C@@H](C)C(=O)NCC(=O)N[C@@H](Cc1cnc[nH]1)C(=O)N[C@@H](CC(C)C)C(=O)N[C@@H](C)C(=O)N[C@@H](CO)C(=O)N[C@@H](CCCCN)C(=O)N[C@@H](C)C(=O)N[C@@H](CCSC)C(=O)N[C@@H](CC(N)=O)C(=O)N[C@@H](CCCCN)C(=O)N[C@@H](CC(C)C)C(N)=O [GVVDILKGAAKDIAGHLASKAMNKL] | > 100 µM | > 100 µM | > 100 µM | > 100 µM | ≥ 100 µM | ≥ 100 µM |  |  |  |  |  | 
CC[C@H](C)[C@H](NC(=O)[C@H](CCCN=C(N)N)NC(=O)[C@H](Cc1ccccc1)NC(=O)[C@H](CCCN=C(N)N)NC(=O)[C@@H](N)C(C)C)C(=O)N[C@@H](CCCN=C(N)N)C(=O)N[C@H](C(=O)N[C@@H](C)C(=O)N[C@H](C(=O)N[C@H](C(=O)N[C@@H](CCCN=C(N)N)C(=O)N[C@@H](C)C(N)=O)[C@@H](C)CC)C(C)C)C(C)C [VRFRIRVAVIRA] |  |  |  |  |  |  | 4.12 µM (≈ 6 µg/mL) | 8.24 µM (≈ 12 µg/mL) | 1.1 µM (≈ 1.6 µg/mL) |  |  | MIC (Candida albicans): 4.12 µM (≈ 6 µg/mL); MIC (Escherichia coli UB1005): 1.1 µM (≈ 1.6 µg/mL); MIC [8]: 4.12 µM (≈ 6 µg/mL)
CC[C@H](C)[C@H](NC(=O)[C@H](CCCN=C(N)N)NC(=O)[C@H](CC(C)C)NC(=O)[C@H](CCC(N)=O)NC(=O)[C@@H](N)C(C)C)C(=O)N[C@@H](CCCN=C(N)N)C(=O)N[C@H](C(=O)N[C@@H](CS)C(=O)N[C@H](C(=O)N[C@H](C(=O)N[C@@H](CCCN=C(N)N)C(=O)N[C@@H](CCCCN)C(=O)O)[C@@H](C)CC)C(C)C)C(C)C [VQLRIRVCVIRK] | 10.8 µM (≈ 16 µg/mL) |  |  |  |  |  | 5.39 µM (≈ 8 µg/mL) | 10.8 µM (≈ 16 µg/mL) |  | 10.8 µM (≈ 16 µg/mL) | 7.63 µM (≈ 11.3 µg/mL) | MIC (Acinetobacter baumannii): 21.6 µM (≈ 32 µg/mL); MIC (Escherichia coli): 30.5 µM (≈ 45.3 µg/mL); MIC [15]: 10.8 µM (≈ 16 µg/mL)
CC[C@H](C)[C@H](NC(=O)CN)C(=O)N[C@@H](Cc1c[nH]c2ccccc12)C(=O)N[C@@H](CO)C(=O)N[C@@H](CO)C(=O)N[C@@H](CC(C)C)C(=O)N[C@@H](CC(C)C)C(=O)N[C@@H](CCCCN)C(=O)N[C@@H](CCCCN)C(=O)N[C@@H](CC(C)C)C(=O)N[C@@H](CCCCN)C(=O)N[C@@H](CCCCN)C(=O)N[C@H](C(=O)N[C@H](C(=O)N[C@@H](C)C(=O)N[C@@H](CCCCN)C(N)=O)[C@@H](C)CC)[C@@H](C)CC [GIWSSLLKKLKKIIAK] |  |  | 6.3 µM (≈ 11.5 µg/mL) |  |  |  |  |  | 1.5 µM (≈ 2.74 µg/mL) | 21 µM (≈ 38.3 µg/mL) | 5.3 µM (≈ 9.67 µg/mL) | MIC (Bacillus subtilis 168): 7 µM (≈ 12.8 µg/mL); MIC [12]: 16 µM (≈ 29.2 µg/mL); MIC (Escherichia coli B): 1.6 µM (≈ 2.92 µg/mL); MIC [13]: 3 µM (≈ 5.48 µg/mL); MIC (Staphylococcus aureus 1): 4.6 µM (≈ 8.4 µg/mL); MIC [14]: 20 µM (≈ 36.5 µg/mL)
CC[C@H](C)[C@H](NC(=O)[C@H](CC(=O)O)NC(=O)[C@H](CCCCN)NC(=O)[C@H](C)NC(=O)[C@H](C)NC(=O)CNC(=O)[C@H](CCCCN)NC(=O)[C@H](CC(C)C)NC(=O)[C@@H](NC(=O)[C@H](CC(=O)O)NC(=O)[C@@H](NC(=O)[C@@H](NC(=O)CN)C(C)C)C(C)C)[C@@H](C)CC)C(=O)N[C@@H](C)C(=O)NCC(=O)N[C@@H](Cc1cnc[nH]1)C(=O)N[C@@H](C)C(=O)N[C@@H](CO)C(=O)N[C@@H](CCCCN)C(=O)N[C@H](C(=O)N[C@@H](CCSC)C(=O)N[C@@H](CC(N)=O)C(=O)N[C@@H](CCCCN)C(=O)N[C@@H](CC(C)C)C(N)=O)C(C)C [GVVDILKGAAKDIAGHASKVMNKL] | > 100 µM | > 100 µM | > 100 µM | > 100 µM | ≥ 100 µM | ≥ 100 µM |  |  |  |  |  | 

From DBAASP
